Laboratory results as given in patent publication US11191743B2, “Modulators of zinc activated cation channel” (Dignity Health, priority 2016, dated 2021).
Entries after “also recorded” stand apart in the source; their conditions may differ. Where two headings read alike, the source gives them in different places.

What was measured:
[1] = molecular target: T1, ZACN (Homo sapiens, UniProt Q401N2); assay: Two-electrode voltage-clamp, ZACN expressed in Xenopus laevis oocytes: inhibition or modulation of spontaneous, zinc-activated and suramin-activated current; assay type: cell-based; parameters: host or cells: Xenopus laevis oocytes injected with cRNA (pGEMHE vector, T7 transcript); conditions: for mode of antagonism: IC50 at 500 μM vs 2 mM Zn2+
T1 sequence (Q401N2 26-412): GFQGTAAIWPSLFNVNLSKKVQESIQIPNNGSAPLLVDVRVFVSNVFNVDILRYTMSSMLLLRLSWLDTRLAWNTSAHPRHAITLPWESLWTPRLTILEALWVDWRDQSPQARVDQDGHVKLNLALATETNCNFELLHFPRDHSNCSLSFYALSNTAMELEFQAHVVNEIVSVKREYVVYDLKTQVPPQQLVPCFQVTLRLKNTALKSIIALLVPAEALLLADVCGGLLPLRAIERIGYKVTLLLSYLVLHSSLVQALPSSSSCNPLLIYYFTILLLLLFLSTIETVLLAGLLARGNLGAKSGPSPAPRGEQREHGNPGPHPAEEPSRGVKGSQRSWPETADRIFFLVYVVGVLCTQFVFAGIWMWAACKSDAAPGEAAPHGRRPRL
Protocol: Stage IV oocytes from Xenopus laevis were injected with Ing of ZACN human mRNA. Prior to recording, oocytes were incubated in the oocyte Ringer's Solution (OR2) with 10 μM D-tubocurarine to inhibit spontaneous channel opening. The oocytes were incubated at 14° C. for three to five days following mRNA injection before recording with two-electrode voltage-clamp. […] Current levels in response to drug applications were normalized to the response to the same concentration of zinc in the absence of the drug. Peak current inhibitions were fitted to the Hill equation to derive IC50 values.
(§1) The cDNA encoding wild type, human ZACN was purchased from OpenBiosystems, and cloned into the pGEMHE vector in the T7 orientation. For cRNA synthesis, cDNA templates were PCR amplified using primers that cover the M13 forward and reverse regions and high fidelity Phusion DNA polymerase (New England Biolab, Ipswich, Mass., USA). PCR products were then purified and served as templates for cRNA synthesis. cRNAs were transcribed by T7 RNA polymerase (Promega, Madison, Wis., USA) using standard in vitro transcription protocols. After digestion of the DNA template by RNase-free DNase I, cRNAs were purified and resuspended in diethyl pyrocarbonate (DEPC)-treated water. cRNA integrity was examined on a 1% agarose gel, and cRNA concentration was determined by optical density measurements at 260 nm using an Eppendorf Biophotometer.
(§2) Oocytes were harvested from female Xenopus laevis (Xenopus I, Ann Arbor, Mich., USA), using the protocol “Xenopus Care and Use” approved by the Institutional Animal Care and Use Committee of the St. Joseph's Hospital and Medical Center. Stage VI oocytes were selected and incubated at 16° C. before injection. Micropipettes for injection were pulled from borosilicate glass (Drummond Scientific, Broomall, Pa., USA) on a Sutter P87 horizontal puller, and the tips were cut with forceps to ≈40 μm in diameter. cRNAs encoding ZACN was drawn up into the micropipette and injected into oocytes with a Nanoject micro-injection system (Drummond Scientific) in a total volume of ˜60 nl and total cRNA of ˜20 ng for each oocyte.
(§3) ValveLink 16 computer-controlled perfusion system was used to switch solutions between the OR2 and a test solution. The perfusion chamber was grounded through an agar salt bridge to avoid alterations in junction potential between the Ag/AgCl grounding electrode and solution when solution/drug changes occurred. Oocytes were voltage-clamped at −70 mV to measure agonist-induced currents using an AxoClamp 900A amplifier (Axon Instruments, Foster City, Calif., USA). The current signal was low-pass filtered at 20 Hz with the built-in 4-pole low-pass Bessel filter and digitized at 100 Hz with a Digidata1440a and pClamp 10 software (Molecular Devices).
(§4) For each oocyte, concentration-inhibition curves for drug-induced inhibition of zinc-activated current responses or concentration response curves for agonist-induced current of the ZACN were fit to the Hill equation using least squares methods (Prism 6.0, GraphPad Software, Inc., San Diego, Calif., USA) to derive IC50 or EC50 values (the concentration required for inducing a half maximal current), Hill coefficients (the slope factor), and maximum current levels in absolute terms. Current levels in each oocyte were normalized to the maximum current in the absence of the inhibitor, allowing normalized data to be averaged across multiple oocytes and to be fit again to the Hill equation. All data are presented as mean±SEM (standard error).

[2] = molecular target: T1, ZACN; assay: Two-electrode voltage-clamp, ZACN expressed in Xenopus laevis oocytes: agonist-induced current; assay type: cell-based; parameters: host or cells: Xenopus laevis oocytes injected with cRNA (pGEMHE vector, T7 transcript)
Description: as §1, §2
as §3, with “Two to 5 days after injection, oocytes expressing ZACN were placed in a home-made, small volume chamber and a 16-channel manifold, continuously perfused with oocyte Ringer's solution (OR2), which consisted of (in mM) 92.5 NaCl, 2.5 KCl, 1 CaCl2, 1 MgCl2 and 5 HEPES, pH 7.5. ValveLink” for “ValveLink”
as §4

antagonist activity on human ZACN [1] | Compound | agonist activity on human ZACN (words) [2] | also measured
inhibitor | Nc1ncnc2c1ncn2[C@@H]1O[C@H](COP(=O)(O)OP(=O)(O)OP(=O)(O)O)[C@@H](O)[C@H]1O [ATP] | – | effect on spontaneous current / spontaneous opening [1]: inhibits; effect on suramin-activated current [1]: positive allosteric modulator; also recorded: potentiates; effect on zinc-activated current [1]: antagonist; also recorded: inhibits
– | COc1cc(-c2ccc(/N=N/c3ccc4c(S(=O)(=O)O)cc(S(=O)(=O)O)c(N)c4c3O)c(OC)c2)ccc1/N=N/c1ccc2c(S(=O)(=O)O)cc(S(=O)(=O)O)c(N)c2c1O [Chicago sky blue] | activate the human ZACN | –
– | Cc1cc(-c2ccc(/N=N/c3ccc4c(S(=O)(=O)O)cc(S(=O)(=O)O)c(N)c4c3O)c(C)c2)ccc1/N=N/c1ccc2c(S(=O)(=O)O)cc(S(=O)(=O)O)c(N)c2c1O [Evans blue] | agonists; also recorded: efficacious agonist | –
– | O=C(Nc1cccc(C(=O)Nc2ccc(S(=O)(=O)O)c3cc(S(=O)(=O)O)cc(S(=O)(=O)O)c23)c1)Nc1cccc(C(=O)Nc2ccc(S(=O)(=O)O)c3cc(S(=O)(=O)O)cc(S(=O)(=O)O)c23)c1 [NF-023] | agonist | –
– | O=C(Nc1cc(C(=O)Nc2ccc(S(=O)(=O)O)cc2)cc(C(=O)Nc2ccc(S(=O)(=O)O)cc2)c1)Nc1cc(C(=O)Nc2ccc(S(=O)(=O)O)cc2)cc(C(=O)Nc2ccc(S(=O)(=O)O)cc2)c1 [NF-110] | agonist | –
– | O=C(Nc1cccc(C(=O)Nc2cc(C(=O)Nc3ccc(S(=O)(=O)O)c4cc(S(=O)(=O)O)cc(S(=O)(=O)O)c34)ccc2F)c1)Nc1cccc(C(=O)Nc2cc(C(=O)Nc3ccc(S(=O)(=O)O)c4cc(S(=O)(=O)O)cc(S(=O)(=O)O)c34)ccc2F)c1 [NF-157] | efficacious agonist | agonist activity on human ZACN (words) ([2]; listed as NF157): agonists
– | O=C(Nc1ccc(C(=O)Nc2ccc(C(=O)Nc3ccc(S(=O)(=O)O)c4cc(S(=O)(=O)O)cc(S(=O)(=O)O)c34)cc2)cc1)Nc1ccc(C(=O)Nc2ccc(C(=O)Nc3ccc(S(=O)(=O)O)c4cc(S(=O)(=O)O)cc(S(=O)(=O)O)c34)cc2)cc1 [NF-279] | agonists; also recorded: efficacious agonist | –
– | O=C(Nc1cc(C(=O)Nc2ccc(S(=O)(=O)O)cc2S(=O)(=O)O)cc(C(=O)Nc2ccc(S(=O)(=O)O)cc2S(=O)(=O)O)c1)Nc1cc(C(=O)Nc2ccc(S(=O)(=O)O)cc2S(=O)(=O)O)cc(C(=O)Nc2ccc(S(=O)(=O)O)cc2S(=O)(=O)O)c1 [NF-449] | agonist | concentration at which the small high sensitivity component is saturated [2]: 1 µM
– | Cc1cc(-c2ccc(/N=N/c3c(S(=O)(=O)O)cc4cc(S(=O)(=O)O)cc(N)c4c3O)c(C)c2)ccc1/N=N/c1c(S(=O)(=O)O)cc2cc(S(=O)(=O)O)cc(N)c2c1O [Trypan blue] | agonists; also recorded: efficacious agonist | –
– | O=S1(=O)OC(c2cc(Br)c(O)c(Br)c2)(c2cc(Br)c(O)c(Br)c2)c2ccccc21 [bromophenol blue] | activate the human ZACN | –
– | Cc1c(C2(c3cc(C(C)C)c(O)c(Br)c3C)OS(=O)(=O)c3ccccc32)cc(C(C)C)c(O)c1Br [bromothymol blue] | activate the human ZACN | –
acted as antagonists | CNCCCN1c2ccccc2CCc2ccccc21 [desipramine] | – | IC50s relative to clinical concentrations [1]: clinically relevant concentrations; relative potency / IC50 for the Zn2+-induced current among seven tested antidepressants [1]: lower IC50 values; mode of antagonism [1]: non-competitive; relative potency / IC50 for the Zn2+-induced current among seven tested antidepressants ([1]; listed as desipranine): most potent antagonists
acted as antagonists | CN(C)CCC=C1c2ccccc2COc2ccccc21 [doxepin] | – | mode of antagonism [1]: non-competitive
antagonists | CN(C)c1ccc2nc3ccc(=[N+](C)C)cc-3sc2c1 [methylene blue] | – | high sensitivity component of antagonism, concentration range [1]: nano-molar range; low sensitivity form of antagonism, concentration range [1]: micromolar range
acted as antagonists | CN1CCN2c3ccccc3Cc3ccccc3C2C1 (centres unmarked) [mianserin] | – | mode of antagonism [1]: non-competitive
antagonists | Cc1cc2nc3ccc(N(C)C)cc3nc2cc1N.Cl [neutral red] | – | high sensitivity component of antagonism, concentration range [1]: nano-molar range; low sensitivity form of antagonism, concentration range [1]: micromolar range
– | Cc1ccc(C(=O)Nc2ccc(S(=O)(=O)O)c3cc(S(=O)(=O)O)cc(S(=O)(=O)O)c23)cc1NC(=O)c1cccc(NC(=O)Nc2cccc(C(=O)Nc3cc(C(=O)Nc4ccc(S(=O)(=O)O)c5cc(S(=O)(=O)O)cc(S(=O)(=O)O)c45)ccc3C)c2)c1 [suramin] | agonists; also recorded: efficacious agonist | –
acted as antagonists | CNCC[C@@H](Oc1ccccc1C)c1ccccc1 [tomoxetine] | – | IC50s relative to clinical concentrations [1]: clinically relevant concentrations; relative potency / IC50 for the Zn2+-induced current among seven tested antidepressants [1]: lower IC50 values; mode of antagonism [1]: non-competitive; relative potency / IC50 for the Zn2+-induced current among seven tested antidepressants ([1]; listed as tomoxentine): most potent antagonists
– | brilliant blue | activate the human ZACN | –
– | heparin | agonist | –
– | pentosan polysulfate | agonist of the human ZACN with high efficacy | agonist activity on human ZACN (words) ([2]; listed as pentosane polysulfate): agonist

Compound | antagonist activity on human ZACN [1] | agonist activity on human ZACN (words) [2] | also measured
CNCCC(Oc1ccc(C(F)(F)F)cc1)c1ccccc1 (centres unmarked) [fluoxetine] | acted as antagonists | – | mode of antagonism [1]: non-competitive
CCOc1ccccc1OC(c1ccccc1)C1CNCCO1 (centres unmarked) [reboxetine] | acted as antagonists | – | mode of antagonism [1]: non-competitive
Cc1cc2nc3ccc(N(C)C)cc3[s+]c2cc1N.[Cl-] [toluidine blue] | antagonists | – | high sensitivity component of antagonism, concentration range [1]: nano-molar range; low sensitivity form of antagonism, concentration range [1]: micromolar range
COc1ccc(C(CN(C)C)C2(O)CCCCC2)cc1 (centres unmarked) [venlafaxine] | acted as antagonists | – | mode of antagonism [1]: non-competitive
